# Active and inactive are the calls of the source. No cut-off for these calls is given here.
# Experiments:
# MDA-MB-231 [1] = assay: Antiproliferative activity against human MDA-MB-231 cells after 4 hrs by MTT assay; format: functional, cell-based; conditions: MDA-MB-231, 4 h
# MDA-MB-231 [2] = assay: Induction of apoptosis in human MDA-MB-231 cells assessed as increase in expression of cleaved caspase 8 at 2.5 to 5.8 uM after 24 hrs by SDS-polyactylamide gel electrophoresis; format: functional, cell-based
# MDA-MB-231 [3] = assay: Induction of apoptosis in human MDA-MB-231 cells assessed as increase in expression of cleaved caspase 3 at 2.5 to 5.8 uM after 24 hrs by SDS-polyactylamide gel electrophoresis; format: functional, cell-based
# MDA-MB-231 [4] = assay: Induction of apoptosis in human MDA-MB-231 cells assessed as decrease in expression of full-length BID at 2.5 to 5.8 uM after 24 hrs by SDS-polyactylamide gel electrophoresis; format: functional, cell-based
# MDA-MB-231 [5] = assay: Induction of apoptosis in human MDA-MB-231 cells assessed as increase in expression of cleaved PARP at 2.5 to 5.8 uM after 24 hrs by SDS-polyactylamide gel electrophoresis; format: functional, cell-based
# LLC-PK1 = assay: Cytotoxicity against pig LLC-PK1 cells after 4 hrs by MTT assay; format: cell-based; conditions: Sus scrofa, LLC-PK1, 4 h
# MDA-MB-231 [6] = assay: Induction of apoptosis in human MDA-MB-231 cells assessed as increase in cells at early apoptotic phase at 2.5 uM after 24 hrs by annexin-V-FITC/propidium iodide staining- based flow cytometric analysis (reference value: 4.76%); format: functional
IC50 (MDA-MB-231 [1]),Compound,other results
2.9 µM,COc1cccc2c1C(=O)c1c(O)c3c(c(O)c1C2=O)C[C@@](O)(C(=O)CO)C[C@@H]3O[C@H]1C[C@H](N)[C@H](O)[C@H](C)O1 [DOXORUBICIN],
6.2 µM,CC(=O)O[C@H]1C(=O)[C@@]2(C)[C@H]([C@H](OC(=O)c3ccccc3)[C@]3(O)C[C@H](OC(=O)[C@H](O)[C@@H](NC(=O)c4ccccc4)c4ccccc4)C(C)=C1C3(C)C)[C@]1(OC(C)=O)CO[C@@H]1C[C@@H]2O [PACLITAXEL],
34.4 µM,COc1cc(/C=C/C(=O)CC(=O)/C=C/c2ccc(O)c(OC)c2)ccc1O [CURCUMIN],
27 µM,CC(C)CCC[C@](C)(O)[C@H]1CC[C@]2(C)[C@@H]1[C@H](O)C[C@@H]1[C@@]3(C)CC[C@H](O)C(C)(C)[C@@H]3CC[C@]12C,
25.8 µM,CC(C)CCC[C@](C)(O)[C@H]1CC[C@]2(C)[C@@H]1[C@H](O)C[C@@H]1[C@@]3(C)CC[C@H](O)C(C)(C)[C@@H]3[C@@H](O)C[C@]12C,

Compound,IC50 (MDA-MB-231 [1]),other results
O=C(O[C@@H]1Cc2c(O)cc(O)cc2O[C@@H]1c1cc(O)c(O)c(O)c1)c1cc(O)c(O)c(O)c1 [EPIGALOCATECHIN GALLATE],76.1 µM,
CC(C)=CCC[C@](C)(O)[C@H]1CC[C@]2(C)[C@@H]1[C@H](O)C[C@@H]1[C@@]3(C)CC[C@H](O)C(C)(C)[C@@H]3[C@@H](O)C[C@]12C,12.2 µM,
CC(C)=CCC[C@](C)(O)[C@H]1CC[C@]2(C)[C@@H]1[C@H](O)C[C@@H]1[C@@]3(C)CC[C@H](O)C(C)(C)[C@@H]3CC[C@]12C,5.9 µM,Activity (MDA-MB-231 [2]): Active; Activity (MDA-MB-231 [3]): Active; Activity (MDA-MB-231 [4]): Active; Activity (MDA-MB-231 [5]): Active; IC50 (LLC-PK1): 36.7 µM; Activity (MDA-MB-231 [6]): 8.18%

# — ChEMBL document CHEMBL3351753, “Inhibitory effects of ginseng sapogenins on the proliferation of triple negative breast cancer MDA-MB-231 cells” (Bioorg Med Chem Lett, 2014)
